These are literature values, as cited in patent publication US20050266073A1, “Fast disintegrating granules containing bromhexin/bromhexinhydrochloride, process for their preparation, and their use in veterinary medicine” (Boehringer Ingelheim Vetmedica GmbH, priority 2004, published 2005).

Test in series [1]: not given
This is another data set of the same source.

As to `CN(Cc1cc(Br)cc(Br)c1N)C1CCCCC1` [Bromhexin, N-cyclohexyl-N-methyl-(2-amino-3,5-dibrombenzyl)amine], the solubility in water is given as 1 g/250 ml and the “solubility in water (in words)” value is recorded as “soluble with difficulty”.

On to `CN(Cc1cc(Br)cc(Br)c1N)C1CCCCC1.Cl` [Bromhexinhydrochloride], for which the “solubility in ethanol, methanol and methylene chloride (in words)” value in series [1] is given as “dissolves with difficulty”.
